Assays:
[1] = test system: caspase-3; test: Activity of caspase-3 in CEM cells (Apo-ONE kit); format: cell-based; details: 10 μM, 12 and 24 hours
Experimental: In the course of apoptosis, caspase cascade is activated. Caspase-3 is an effector caspase that plays a role in the induction of some changes typical for apoptosis (chromatin condensation, DNA fragmentation).
Leukemia cell line CEM was cultured in cell culture medium (DMEM containing 5 g/l glucose, 2 mM glutamine, 100 U/ml peniciline, 100 μg/ml streptomycine, 10% fetal calf serum and sodium bicarbonate). 24 hours before treatment, cell suspensions were centrifuged, diluted to concentration of 500000 cells per ml with fresh medium and pipetted in 50 µL aliquotes into 96-well plate. After 12 and 24 hours of incubation with the test compound, the activity of caspase-3 was measured using commercial kit (Apo-ONE, Promega) that is based on quantification of hydrolysis of fluorogenic substrate Z-DEVD-R110 (excitation 480 nm/emission 520 nm). Reaction specifity was confirmed in a control experiment, when both test compound and caspase-3 inhibitor Ac-DEVD-CHO were added. All experiments were done in triplicate.

[2] = test system: HL-60 (promyelocytic leukemia); test: Calcein AM cytotoxicity assay, HL60; format: cell-based, human; details: 72 hours incubation
How it was run: (§1)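 Cells pre-incubated 24 h at 37° C., 5% CO2, then exposed 72 h to compound at six 3-fold dilutions (top 166.7 μM), in triplicate. Calcein AM added to 1 μg/ml final; fluorescence read after 1 h. GI50 is the concentration giving 50% reduction of esterase activity, taken from dose-response curves.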

[3] = test system: Leukemia cell line CEM; test: Flow cytometry analysis of apoptosis (DNA fragmentation, sub-G1) in CEM; format: cell-based
Experimental: One of the hallmarks of apoptosis is fragmentation of DNA. It can be measured by flowcytometry of the cells stained with propidium iodide. Because the fragmentation results in a loss of a fraction of the nuclear DNA, apoptotic cells have a lower DNA content than cells in G1 phase of cell cycle and can be detected as a subG1 peak in the histogram.
Leukemia cell line CEM was cultured in cell culture medium (DMEM containing 5 g/l glucose, 2 mM glutamine, 100 U/ml penicillin, 100 μg/ml streptomycine, 10% fetal calf serum and sodium bicarbonate). 24 hours before treatment, cell suspensions were centrifuged, diluted with fresh medium to concentration of 100000 cells per ml with fresh medium and pipetted in 10 ml aliquotes Petri dishes. After an incubation for a given time period, the cells were collected by centrifugation (4° C., 600 g), washed with PBS (4° C.) and fixed with 70% ethanol at −20° C. overnight. Low molecular weight DNA fragmentse were extracted with citrate buffer (11.36 g trisodium citrate dihydrate/l). The nuclei were stained with the solution of propidium iodide in PBS (10 μg/ml) containing RNase A (60 IU per sample). After 1 hour incubation the samples were analyzed by flowcytometry (excitation 488 nm, emission above 620 nm).

[4] = test system: K-562 (human erythroleukemia); test: Calcein AM cytotoxicity assay, K-562; format: cell-based; details: 72 hours incubation
How it was run: as §1

O=P(O)(O)OC[C@H]1O[C@@H](n2cnc3c(NCc4ccccc4O)ncnc32)[C@H](O)[C@@H]1O [Compound 21, 6-(2-hydroxybenzylamino)purine riboside-5′-monophosphate]
activation of caspase-3 [1]: activates caspase-3 | GI50 [2]: 480 nM | time after which DNA fragmentation effect was visible [3]: ≤ 12 h | induction of DNA fragmentation (apoptotic sub-G1 fraction) ([3]; IC50, triple IC50 and fivefold IC50): induction of DNA fragmentation is dependent on the concentration of compound 21 and the time of the treatment | GI50 [4]: 4000 nM

— patent US9073961B2, “Substitution derivatives of N6 -benzyladenosine-5′-monophosphate, methods of preparation thereof, use thereof as medicaments, and therapeutic preparations containing these compounds” (UNIVERZITA PALACKEHO V OLOMOUCI, priority 2010, dated 2015)
